For one data set, the target named is T1, TRPV6 WT (Homo sapiens, UniProt Q9H1D0).
T1 construct: expressed in transfected cells; host or cells: HEK293 cells, transient transfection
T1 sequence (Q9H1D0 41-765 limits assumed): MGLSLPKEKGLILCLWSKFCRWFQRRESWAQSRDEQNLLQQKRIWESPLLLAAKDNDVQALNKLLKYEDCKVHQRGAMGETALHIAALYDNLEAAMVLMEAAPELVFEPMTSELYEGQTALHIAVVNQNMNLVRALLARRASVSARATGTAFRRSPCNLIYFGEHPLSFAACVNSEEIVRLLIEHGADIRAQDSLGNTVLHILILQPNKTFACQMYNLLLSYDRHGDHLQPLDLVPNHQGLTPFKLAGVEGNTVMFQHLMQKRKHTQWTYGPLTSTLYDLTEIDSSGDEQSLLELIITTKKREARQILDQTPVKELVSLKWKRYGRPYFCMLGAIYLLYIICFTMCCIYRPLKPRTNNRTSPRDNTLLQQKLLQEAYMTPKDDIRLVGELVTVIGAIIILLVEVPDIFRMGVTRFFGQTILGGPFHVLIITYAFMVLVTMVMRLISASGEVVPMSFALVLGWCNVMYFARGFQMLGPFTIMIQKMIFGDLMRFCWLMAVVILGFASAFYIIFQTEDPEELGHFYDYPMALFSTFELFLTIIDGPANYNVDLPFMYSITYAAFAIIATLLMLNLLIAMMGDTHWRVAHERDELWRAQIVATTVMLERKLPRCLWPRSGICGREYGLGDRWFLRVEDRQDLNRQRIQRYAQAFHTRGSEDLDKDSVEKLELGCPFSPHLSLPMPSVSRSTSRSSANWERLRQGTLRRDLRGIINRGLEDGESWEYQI
Nature of the data set: Whole-cell patch clamp, TRPV6 WT. It is filed as cell-based. As to conditions: for re-activation after washout with DMSO: 0.1 μM cis-22a or 10 μM pal-PIP2 peptide, then diluted DMSO, n=4 each, Figure S6C,D. The text has this:
(§1) N-terminally TagRFP-labeled human TRPV6 (725 aa) was kindly provided by R. Bhardwaj and M. Hediger (University of Bern, Bern, Switzerland). This variant is translated from the first ATG codon and thus deviates from the non-ATG-initiated protein which is expressed in vivo (accession number NM_018646.6) by lacking 40 amino acids of the very N-terminus. For N-terminal labeling with EYFP, TRPV6 was cloned into pEYFP-C1 (Clontech) via EcoRI and SacII restriction sites. Mutations (F468A, R470A, F472A, K484A/Q, G488R, R492A/Q, I575A, G579A, D580A/K, H582A, W583A/F, H587A, R589A, W593A, R632A/Q, R470A, W583F) were introduced using the QuickChange XL site-directed mutagenesis kit (Stratagene, San Diego, CA, USA) and Pfu DNA Polymerase (Promega, Madison, WI, USA). pTagRFP-hTRPV6 I575A was kindly provided by the lab of M. Hediger (University of Bern, Bern, Switzerland). Forward and reverse primers for site-directed mutagenesis were synthesized by Eurofins genomics GmbH (Wien, Vienna, Austria). Intactness of the constructs in terms of sequence was confirmed by sequencing (Microsynth Austria GmbH, Wien, Vienna, Austria; Eurofins genomics GmbH, Wien, Vienna, Austria). In the present experiments, Tag-RFP-labeled constructs were implemented for NFAT screens, patch clamp measurements, and Fura-2-based Ca^2+ imaging, while for R.Geco1.2 measurements, TRPV6 WT and mutants were used which carried an EYFP label at the N-terminus (pEYFP-C1 vector) to avoid spectral overlap. R.Geco1.2 was purchased from Addgene (No. 45494), and mCherry-CRY2-5ptase OCRL was established in the lab of P. De Camilli and was derived from Addgene (No. 66836), as was CIBN-CAAX (No. 79574). Plasmids encoding for mCerulean3-CRY2-5′ ptase OCRL, YFP-CIBN-CAAX, and the mCherry-tagged PH domain were provided by K. Groschner (Medical University of Graz, Graz, Austria). […] CFP-NFAT (NFATc1, equivalent to NFAT2) was kindly provided by R. Kehlenbach (Scripps Research Institute, La Jolla, CA, USA).
Cultivation of human embryonic kidney (HEK) 293 cells occurred in DMEM supplemented with 10% fetal calf serum, penicillin (100 U/mL), and streptomycin (100 µg/mL) at 37 °C under humidified atmosphere containing 5% CO2. Transient transfection was performed 20–24 h prior to experiments using the TransFectin lipid reagent (Bio-Rad, Hercules, CA, USA), in accordance with the instructions of the supplier. For Ca^2+ imaging using R.Geco1.2, 2 μg of the indicator-encoding plasmid were additionally transfected, while 1 μg plasmid DNA was routinely used per construct in all other cases. For patch clamp experiments, cells were reseeded on poly-L-lysine-coated glass slides at least 4 h prior to experiments. To exclude mycoplasma contaminations, culture supernatants were regularly tested by means of the VenorGem Advanced Mycoplasma Detection kit (VenorGEM, Berlin, Germany).
Electrophysiological experiments were performed at 20 °C to 24 °C in whole-cell recording configurations of the patch clamp technique. A Ag/AgCl electrode was used as a reference electrode. The implemented voltage ramp protocol included a holding potential of +50 mV, wherefrom voltage was ramped from −90 mV to +90 mV within 200 ms with an interval of 5 s between individual ramps. For the time courses, the inward current density at −74 mV was considered. The internal pipette solution contained 145 mM cesium methane sulfonate, 8 mM NaCl, 3.5 mM MgCl2, 10 mM HEPES, and 20 mM EGTA (pH 7.2). For electrophysiological measurements, the basic extracellular solution was composed of 145 mM NaCl, 5 mM CsCl, 1 mM MgCl2, 10 mM HEPES, 10 mM glucose, and 10 mM CaCl2 (pH 7.4). Leak correction of currents was performed by subtracting the residual current after 1 mM La^3+ application at the end of the experiment. The liquid junction potential was determined as 12 mV; the voltages were not adjusted. Clampfit 11.1.0.23 and OriginPro 2020b software were used for data analysis. All experiments were conducted on a minimum of two different days.
On the technique in general: Patch clamp records ionic current or voltage across a cell membrane.

The subject of the next data set is TRPV6 G488R. Nature of the data set: Whole-cell patch clamp, TRPV6 G488R. The data set is classed as cell-based, human. As to conditions: HEK293 cells; for inhibition of current (in words): Figure 2D.
Text: as §1
Cultivation of human embryonic kidney (HEK) 293 cells occurred in DMEM supplemented with 10% fetal calf serum, penicillin (100 U/mL), and streptomycin (100 µg/mL) at 37 °C under humidified atmosphere containing 5% CO2. Transient transfection was performed 20–24 h prior to experiments using the TransFectin lipid reagent (Bio-Rad, Hercules, CA, USA), in accordance with the instructions of the supplier. For Ca^2+ imaging using R.Geco1.2, 2 μg of the indicator-encoding plasmid were additionally transfected, while 1 μg plasmid DNA was routinely used per construct in all other cases. […]
Electrophysiological experiments were performed at 20 °C to 24 °C in whole-cell recording configurations of the patch clamp technique. […] The liquid junction potential was determined as 12 mV; the voltages were not adjusted. […]

Like-named read-outs stand apart in the source and are kept apart here. Residues, ends and D or L forms follow the SMILES beside them. *: point of attachment. Palmitoyl = CCCCCCCCCCCCCCCC(=O)*

With `Cc1cccc(C2CCC(N3CCN(c4cccnc4)CC3)CC2)c1.O=C(O)C(F)(F)F` (stereo not drawn) [cis-22a], on TRPV6 WT (HEK293 cells), the “re-activation after washout with DMSO” value is “no re-activation occurred”. The “inhibition of current (in words)” value against TRPV6 WT (HEK293 cells, 10 µM cis-22a, after 0.1 µM, Figure 2D) is recorded as “almost complete block”; in the data set on TRPV6 G488R (0.1 µM cis-22a, 10 mM Ca2+), “not inhibited”; in the data set with TRPV6 G488R (10 µM cis-22a (hundredfold higher dose), after 0.1 µM), “essentially unaffected”. Further, on TRPV6 WT (HEK293 cells, 10 μM cis-22a, 10 mM Ca2+, relative to La3+ block, Figure 4C), the inhibition of current is recorded as ~ 98%.

The term IC50 denotes the concentration needed to halve the response being measured. The term inhibition denotes the change of the read-out against control, counted positive when it falls. In turn, `CCCCCCCCCCCCCCCC(=O)N[C@@H](Cc1c[nH]cn1)C(=O)N[C@@H](CCCNC(=N)N)C(=O)N[C@@H](CCC(N)=O)C(=O)N[C@@H](CCCCN)C(=O)N[C@@H](Cc1c[nH]cn1)C(=O)N[C@@H](Cc1ccccc1)C(=O)N[C@@H](CCC(=O)O)C(=O)N[C@@H](CCCCN)C(=O)N[C@@H](CCCNC(=N)N)C(=O)N[C@@H](CCCNC(=N)N)C(N)=O` [pal-PIP2 peptide] (Palmitoyl-HRQKHFEKRR-NH2) came in with an IC50 against TRPV6 WT of 4.47 µM. The inhibition at 20 µM on TRPV6 WT (HEK293, read-out: apparent inhibition of current) is about 63%. Besides, the inhibition at 10 µM at TRPV6 WT (HEK293, read-out: inhibition of current) is about 56%; on TRPV6 WT (HEK293, read-out: mean percentage of inhibition (current)), 51.6%; on TRPV6 WT (HEK293, read-out: mean percentage of inhibition (residual current)), 54%. Moreover, the “re-activation after washout with DMSO” value on TRPV6 WT (HEK293 cells) is on record as “no re-activation occurred”. Moreover, the “Ca2+ selectivity” value on TRPV6 WT (HEK293 cells, 10 μM pal-PIP2 peptide, current-voltage relationship, Figure S1D) was “remained unchanged”. For the same molecule, the “reduction of current density (in words)” value on TRPV6 WT (HEK293 cells, Figure 1C,D, S1B–D) is reported as “reduced in a dose-dependent manner”. The “Hill coefficient of dose–response” value at TRPV6 WT (HEK293 cells, Hill fit, 0.1 μM to 30 μM) is 1.95. For the same molecule, the “effect at further increased concentration” value at TRPV6 WT (HEK293 cells, above 30 μM up to 100 μM, supposedly due to increased DMSO concentration) is “rapid membrane rupture or leaky measurements”. Also, the “maximum inhibition of TRPV6 currents (plateau)” value on TRPV6 WT (HEK293 cells, plateau from 20 μM on) was “about 60%”. Moreover, the inhibition of current with TRPV6 G488R (10 μM pal-PIP2 peptide, relative to 1 mM La3+, n=4, Figure S1E) is ~ 4%. The “apparent inhibition of current” value in the data set on TRPV6 G488R (20 μM pal-PIP2 peptide, 10 mM Ca2+, relative to 1 mM La3+, Figure 2B) is given as “about 24%”.
